The supplement of paper PMC10307832

Experiments:
Experiment in all cases: relative viability (nuclei count vs DMSO), 5 days (fraction); higher = more cells survive
A-427 = test system: A-427
How it was run: (§1)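 For relative viability, nuclei counts in treated wells were divided by those in vehicle wells. Lung cancer cell lines had been pin-tool dosed in 1536-well plates the day after seeding and cultured for 5 days, then fixed and stained in one step (final 0.05% Triton X-100, 1% formaldehyde, 1 ug/ml Hoechst) and imaged at 4×. Doses were one drug alone or a fixed anchor-drug dose plus five library-drug doses (not always all listed) in √10 steps, and values are duplicate-plate medians.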

COR-L23 = test system: COR-L23
How it was run: as §1

ChaGo-K-1 = test system: ChaGo-K-1
How it was run: as §1

EKVX = test system: EKVX
How it was run: as §1

EPLC-272H = test system: EPLC-272H
How it was run: as §1

HCC-366 = test system: HCC-366
How it was run: as §1

HCC-44 = test system: HCC-44
How it was run: as §1

HCC-78 = test system: HCC-78
How it was run: as §1

HOP-62 = test system: HOP-62
How it was run: as §1

IA-LM = test system: IA-LM
How it was run: as §1

LOU-NH91 = test system: LOU-NH91
How it was run: as §1

NCI-H1299 = test system: NCI-H1299
How it was run: as §1

NCI-H1395 = test system: NCI-H1395
How it was run: as §1

NCI-H1734 = test system: NCI-H1734
How it was run: as §1

NCI-H1915 = test system: NCI-H1915
How it was run: as §1

NCI-H2023 = test system: NCI-H2023
How it was run: as §1

NCI-H2087 = test system: NCI-H2087
How it was run: as §1

NCI-H3122 = test system: NCI-H3122
How it was run: as §1

NCI-H358 = test system: NCI-H358
How it was run: as §1

NCI-H596 = test system: NCI-H596
How it was run: as §1

NCI-H650 = test system: NCI-H650
How it was run: as §1

NCI-H661 = test system: NCI-H661
How it was run: as §1

NCI-H838 = test system: NCI-H838
How it was run: as §1

SK-MES-1 = test system: SK-MES-1
How it was run: as §1

CCCCCCCCCCCC1=C(O)C(=O)C=C(O)C1=O [Embelin] + CS(=O)(=O)N1CCN(Cc2cc3nc(-c4cccc5[nH]ncc45)nc(N4CCOCC4)c3s2)CC1 [Pictilisib] (partner 1 µM)
relative viability (A-427; first compound 0.08 µM): 0.857 | relative viability (A-427; first compound 0.8 µM): 0.862 | relative viability (A-427; first compound 2.53 µM): 0.654 | relative viability (A-427; first compound 8 µM): 0.656 | relative viability (COR-L23; first compound 0.08 µM): 0.832 | relative viability (COR-L23; first compound 0.8 µM): 0.958 | relative viability (COR-L23; first compound 2.53 µM): 0.874 | relative viability (COR-L23; first compound 8 µM): 0.93 | relative viability (ChaGo-K-1; first compound 0.08 µM): 1 | relative viability (ChaGo-K-1; first compound 0.8 µM): 1.22 | relative viability (ChaGo-K-1; first compound 2.53 µM): 0.626 | relative viability (ChaGo-K-1; first compound 8 µM): 0.428 | relative viability (EKVX; first compound 0.08 µM): 0.481 | relative viability (EKVX; first compound 0.8 µM): 0.437 | relative viability (EKVX; first compound 2.53 µM): 0.406 | relative viability (EKVX; first compound 8 µM): 0.501 | relative viability (EPLC-272H; first compound 0.08 µM): 0.319 | relative viability (EPLC-272H; first compound 0.8 µM): 0.427 | relative viability (EPLC-272H; first compound 2.53 µM): 0.334 | relative viability (EPLC-272H; first compound 8 µM): 0.276 | relative viability (HCC-366; first compound 0.08 µM): 0.151 | relative viability (HCC-366; first compound 0.8 µM): 0.203 | relative viability (HCC-366; first compound 2.53 µM): 0.149 | relative viability (HCC-366; first compound 8 µM): 0.127 | relative viability (HCC-44; first compound 0.08 µM): 0.62 | relative viability (HCC-44; first compound 0.8 µM): 0.61 | relative viability (HCC-44; first compound 2.53 µM): 0.678 | relative viability (HCC-44; first compound 8 µM): 0.7 | relative viability (HCC-78; first compound 0.08 µM): 0.263 | relative viability (HCC-78; first compound 0.8 µM): 0.216 | relative viability (HCC-78; first compound 2.53 µM): 0.225 | relative viability (HCC-78; first compound 8 µM): 0.219 | relative viability (HOP-62; first compound 0.08 µM): 0.883 | relative viability (HOP-62; first compound 0.8 µM): 0.964 | relative viability (HOP-62; first compound 2.53 µM): 0.433 | relative viability (HOP-62; first compound 8 µM): 0.503 | relative viability (IA-LM; first compound 0.08 µM): 0.367 | relative viability (IA-LM; first compound 0.8 µM): 0.326 | relative viability (IA-LM; first compound 2.53 µM): 0.383 | relative viability (IA-LM; first compound 8 µM): 0.249 | relative viability (LOU-NH91; first compound 0.08 µM): 0.543 | relative viability (LOU-NH91; first compound 0.8 µM): 0.597 | relative viability (LOU-NH91; first compound 2.53 µM): 0.552 | relative viability (LOU-NH91; first compound 8 µM): 0.459 | relative viability (NCI-H1299; first compound 0.08 µM): 0.873 | relative viability (NCI-H1299; first compound 0.8 µM): 0.832 | relative viability (NCI-H1299; first compound 2.53 µM): 0.784 | relative viability (NCI-H1299; first compound 8 µM): 0.887 | relative viability (NCI-H1395; first compound 0.08 µM): 0.608 | relative viability (NCI-H1395; first compound 0.8 µM): 0.677 | relative viability (NCI-H1395; first compound 2.53 µM): 0.69 | relative viability (NCI-H1395; first compound 8 µM): 0.502 | relative viability (NCI-H1734; first compound 0.08 µM): 0.492 | relative viability (NCI-H1734; first compound 0.8 µM): 0.547 | relative viability (NCI-H1734; first compound 2.53 µM): 0.557 | relative viability (NCI-H1734; first compound 8 µM): 0.431 | relative viability (NCI-H1915; first compound 0.08 µM): 1.06 | relative viability (NCI-H1915; first compound 0.8 µM): 1.08 | relative viability (NCI-H1915; first compound 2.53 µM): 0.952 | relative viability (NCI-H1915; first compound 8 µM): 0.919 | relative viability (NCI-H2023; first compound 0.08 µM): 0.269 | relative viability (NCI-H2023; first compound 0.8 µM): 0.242 | relative viability (NCI-H2023; first compound 2.53 µM): 0.211 | relative viability (NCI-H2023; first compound 8 µM): 0.243 | relative viability (NCI-H2087; first compound 0.08 µM): 0.885 | relative viability (NCI-H2087; first compound 0.8 µM): 0.96 | relative viability (NCI-H2087; first compound 2.53 µM): 1.24 | relative viability (NCI-H2087; first compound 8 µM): 0.827 | relative viability (NCI-H3122; first compound 0.08 µM): 0.647 | relative viability (NCI-H3122; first compound 0.8 µM): 0.605 | relative viability (NCI-H3122; first compound 2.53 µM): 0.755 | relative viability (NCI-H3122; first compound 8 µM): 0.616 | relative viability (NCI-H358; first compound 0.08 µM): 0.425 | relative viability (NCI-H358; first compound 0.8 µM): 0.39 | relative viability (NCI-H358; first compound 2.53 µM): 0.315 | relative viability (NCI-H358; first compound 8 µM): 0.294 | relative viability (NCI-H596; first compound 0.08 µM): 0.389 | relative viability (NCI-H596; first compound 0.8 µM): 0.432 | relative viability (NCI-H596; first compound 2.53 µM): 0.481 | relative viability (NCI-H596; first compound 8 µM): 0.357 | relative viability (NCI-H650; first compound 0.08 µM): 0.939 | relative viability (NCI-H650; first compound 0.8 µM): 1.1 | relative viability (NCI-H650; first compound 2.53 µM): 1.06 | relative viability (NCI-H650; first compound 8 µM): 0.896 | relative viability (NCI-H661; first compound 0.08 µM): 0.41 | relative viability (NCI-H661; first compound 0.8 µM): 0.44 | relative viability (NCI-H661; first compound 2.53 µM): 0.348 | relative viability (NCI-H661; first compound 8 µM): 0.481 | relative viability (NCI-H838; first compound 0.08 µM): 0.49 | relative viability (NCI-H838; first compound 0.8 µM): 0.573 | relative viability (NCI-H838; first compound 2.53 µM): 0.43 | relative viability (NCI-H838; first compound 8 µM): 0.479 | relative viability (SK-MES-1; first compound 0.08 µM): 0.347 | relative viability (SK-MES-1; first compound 0.8 µM): 0.421 | relative viability (SK-MES-1; first compound 2.53 µM): 0.35 | relative viability (SK-MES-1; first compound 8 µM): 0.359
